Data taken from patent publication US10815222B2, “Compounds for use in the treatment of kinetoplastid infection” (C.N.C.C.S. S.c.a.r.l. COLLEZIONE NAZIONALE DEI COMPOSTI …, priority 2016, dated 2020).

Test system: Bloodstream form of Trypanosoma brucei, strain Lister 427
Experiment: Trypanosoma brucei growth inhibition assay (CellTiter-Glo, 24 h)
Type: cell-based
Conditions: Trypanosoma brucei; T. Brucei Growth Inibition Assay, class symbols; read-out: T. Brucei GI EC50
Outline: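 Growth read-out was CellTiter-Glo luminescence after 24 h at 37 °C incubation of 1500 bloodstream-form Lister 427 trypanosomes per well with compound, in supplemented IMDM containing 10% FBS and at most 0.25% DMSO.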

Compound | EC50
COc1nc2ccccc2cc1-c1cnc(C2CN(CC3CCOC3)CCN2C(=O)c2ccc3ncccc3c2)[nH]1 (stereo not shown) | 1010 to 5000 nM
COc1ccc2nc(C)n(CC(=O)N3CCN(Cc4nccs4)C[C@H]3c3ncc(-c4cc5ccccc5nc4OC)[nH]3)c2c1 [(S)-2-(6-methoxy-2-methyl-1H-benzo[d]imidazol-1-yl)-1-(2-(5-(2-methoxyquinolin-3-yl)-1H-imidazol-2-yl)-4-(thiazol-2-ylmethyl)piperazin-1-yl)ethan-1-one] | < 100 nM
COc1ccc2nc(C(F)(F)F)n(CC(=O)N3CCN(C(C)C)CCC3c3ncc(-c4cc5ccccc5nc4OC)[nH]3)c2c1 (stereo not shown) | 100 to 500 nM
COc1ccc(-c2ccc(C(=O)N3CCN(CC4CCOC4)CC3c3ncc(-c4cc5ccccc5nc4OC)[nH]3)o2)cc1 (stereo not shown) | 1010 to 5000 nM
COc1ccc2nc(C)n(CC(=O)N3CCN(Cc4ccn(C)n4)CCC3c3ncc(-c4cc5ccccc5nc4OC)[nH]3)c2c1 (stereo not shown) [2-(6-methoxy-2-methyl-1H-benzo[d]imidazol-1-yl)-1-(7-(5-(2-methoxyquinolin-3-yl)-1H-imidazol-2-yl)-4-((1-methyl-1H-pyrazol-3-yl)methyl)-1,4-diazepan-1-yl)ethan-1-one] | < 100 nM
COc1ccc2nc(C(F)(F)F)n(CC(=O)N3CCN(Cc4ccon4)CCC3c3ncc(-c4cc5ccccc5nc4OC)[nH]3)c2c1 (stereo not shown) [1-(4-(isoxazol-3-ylmethyl)-7-(5-(2-methoxyquinolin-3-yl)-1H-imidazol-2-yl)-1,4-diazepan-1-yl)-2-(6-methoxy-2-(trifluoromethyl)-1H-benzo[d]imidazol-1-yl)ethan-1-one] | < 100 nM
COc1ccc2c(c1)C(CC(=O)N1CCN(Cc3ccccc3)CC1c1ncc(-c3ccc4ccccc4c3)[nH]1)C(=O)N2 (stereo not shown) | 510 to 1000 nM
COc1nc2ccccc2cc1-c1cnc([C@@H]2CN(C[C@@H]3CCOC3)CCN2C(=O)Cn2c(C(F)(F)F)nc3ccccc32)[nH]1 (single isomer, unassigned) | < 100 nM
COc1nc2ccccc2cc1-c1cnc(C2CN(C(C)C)CCN2C(=O)Cc2ccccc2)[nH]1 (stereo not shown) | 1010 to 5000 nM
COc1ccc2nc(C)n(CC(=O)N3CCN(Cc4nncn4C)C[C@H]3c3ncc(-c4cc5ccccc5nc4OC)[nH]3)c2c1 [(S)-2-(6-methoxy-2-methyl-1H-benzo[d]imidazol-1-yl)-1-(2-(5-(2-methoxyquinolin-3-yl)-1H-imidazol-2-yl)-4-((4-methyl-4H-1,2,4-triazol-3-yl)methyl)piperazin-1-yl)ethan-1-one] | 510 to 1000 nM
CCN(C1CCOC1)[C@H]1CCN(C(=O)Cn2c(C(F)(F)F)nc3ccc(OC)cc32)[C@H](c2ncc(-c3cc4ccccc4nc3OC)[nH]2)C1 (stereo partly drawn) [1-((2S,4S)-4-(ethyl(tetrahydrofuran-3-yl)amino)-2-(5-(2-methoxyquinolin-3-yl)-1H-imidazol-2-yl)piperidin-1-yl)-2-(6-methoxy-2-(trifluoromethyl)-1H-benzo[d]imidazol-1-yl)ethan-1-one] | < 100 nM
COc1nc2ccccc2cc1-c1cnc(C2CN(CC3CCOC3)CCN2C(=O)Cn2c(C)nc3cc(F)ccc32)[nH]1 (stereo not shown) | 100 to 500 nM
COc1ccc(CC(=O)N2CCN(C)CC2c2ncc(-c3ccc4ccccc4c3)[nH]2)cc1 (stereo not shown) | 1010 to 5000 nM
COc1nc2ccccc2cc1-c1cnc([C@@H]2CN(Cc3ccn(C)n3)CCN2C(=O)Cn2c(C(F)(F)F)nc3ccccc32)[nH]1 [(S)-1-(2-(5-(2-methoxyquinolin-3-yl)-1H-imidazol-2-yl)-4-((1-methyl-1H-pyrazol-3-yl)methyl)piperazin-1-yl)-2-(2-(trifluoromethyl)-1H-benzo[d]imidazol-1-yl)ethan-1-one] | < 100 nM
COc1ccc2nc(C(F)(F)F)n(CC(=O)N3CCN(C4CCC4)CCC3c3ncc(-c4cc5ccccc5nc4OC)[nH]3)c2c1 (stereo not shown) [1-(4-cyclobutyl-7-(5-(2-methoxyquinolin-3-yl)-1H-imidazol-2-yl)-1,4-diazepan-1-yl)-2-(6-methoxy-2-(trifluoromethyl)-1H-benzo[d]imidazol-1-yl)ethan-1-one] | < 100 nM
COc1ccc2nc(C)n(CC(=O)N3CCN(C4CCN(C(C)=O)CC4)C[C@H]3c3ncc(-c4cc5ccccc5nc4OC)[nH]3)c2c1 | 510 to 1000 nM
COc1ccc2nc(C(F)(F)F)n(CC(=O)N3CCN(CCc4csc(C)n4)C[C@H]3c3ncc(-c4cc5ccccc5nc4OC)[nH]3)c2c1 [(S)-2-(6-methoxy-2-(trifluoromethyl)-1H-benzo[d]imidazol-1-yl)-1-(2-(5-(2-methoxyquinolin-3-yl)-1H-imidazol-2-yl)-4-(2-(2-methylthiazol-4-yl)ethyl)piperazin-1-yl)ethan-1-one] | < 100 nM
O=C(Cc1c[nH]c2ccc(O)cc12)N1CCN(Cc2ccccc2)CC1c1ncc(-c2ccc3ccccc3c2)[nH]1 (stereo not shown) | 1010 to 5000 nM
COc1ccc2c(c1)C(CC(=O)N1CCN(CC3CCOC3)CC1c1ncc(-c3cc4ccccc4nc3OC)[nH]1)C(=O)N2 (stereo not shown) | 1010 to 5000 nM
COc1ccc2nc(C)n(CC(=O)N3CCN(Cc4cnccn4)C[C@H]3c3ncc(-c4cc5ccccc5nc4OC)[nH]3)c2c1 [(S)-2-(6-methoxy-2-methyl-1H-benzo[d]imidazol-1-yl)-1-(2-(5-(2-methoxyquinolin-3-yl)-1H-imidazol-2-yl)-4-(pyrazin-2-ylmethyl)piperazin-1-yl)ethan-1-one] | < 100 nM

Compound | EC50
COc1nc2ccccc2cc1-c1cnc(C2CN([S+]([O-])C(C)C)CCN2C(=O)Cc2c(C)[nH]c3ccc(F)cc23)[nH]1 (stereo not shown) [2-(5-fluoro-2-methyl-1H-indol-3-yl)-1-(4-(isopropylsulfinyl)-2-(5-(2-methoxyquinolin-3-yl)-1H-imidazol-2-yl)piperazin-1-yl)ethan-1-one] | 1010 to 5000 nM
COc1ccc2nc(C(F)(F)F)n(CC(=O)N3CCN(CC4COC4)CCC3c3ncc(-c4cc5ccccc5nc4OC)[nH]3)c2c1 (stereo not shown) | 100 to 500 nM
COc1ccc2nc(C(F)(F)F)n(CC(=O)N3CC[C@H](N(C)C)C[C@H]3c3ncc(-c4cc5ccccc5nc4OC)[nH]3)c2c1 [1-((2S,4S)-4-(dimethylamino)-2-(5-(2-methoxyquinolin-3-yl)-1H-imidazol-2-yl)piperidin-1-yl)-2-(6-methoxy-2-(trifluoromethyl)-1H-benzo[d]imidazol-1-yl)ethan-1-one] | < 100 nM
CCC(=O)CCCN1CCN(S(=O)(=O)c2ccc3ccccc3c2)C(c2ncc(-c3ccc4ccccc4c3)[nH]2)C1 (stereo not shown) | 1010 to 5000 nM
COc1ccc2nc(C)n(CC(=O)N3CCN(CC4CCOC4)C[C@H]3c3ncc(-c4cc5ccccc5n4C(=O)OC(C)(C)C)[nH]3)c2c1 (stereo partly shown) | 1010 to 5000 nM
CCC(=O)CCCN1CCN(Cc2ccccc2)C(c2ncc(-c3ccc4ccccc4c3)[nH]2)C1 (stereo not shown) [6-(4-benzyl-3-(5-(naphthalen-2-yl)-1H-imidazol-2-yl)piperazin-1-yl)hexan-3-one] | 1010 to 5000 nM
CN1CCN(C(=O)Cc2ccccc2)C(c2ncc(-c3ccc4ncccc4c3)[nH]2)C1 (stereo not shown) | 1010 to 5000 nM
COc1nc2ccccc2cc1-c1cnc(C2CN(Cc3ccccc3)CCN2C(=O)CC2=C(C)NC3C=CC=CC23)[nH]1 (stereo not shown) | 100 to 500 nM
COc1ccc2nc(C(F)(F)F)n(CC(=O)N3CCN(CCn4cnnc4)C[C@H]3c3ncc(-c4cc5ccccc5nc4OC)[nH]3)c2c1 | 1010 to 5000 nM
COc1ccc2nc(C(F)(F)F)n(CC(=O)N3CC[C@H](N4CCCC4)C[C@H]3c3ncc(-c4cc5ccccc5nc4OC)[nH]3)c2c1 [2-(6-methoxy-2-(trifluoromethyl)-1H-benzo[d]imidazol-1-yl)-1-((2S,4S)-2-(5-(2-methoxyquinolin-3-yl)-1H-imidazol-2-yl)-4-(pyrrolidin-1-yl)piperidin-1-yl)ethan-1-one] | < 100 nM
COc1nc2ccccc2cc1-c1cnc(C2COCCN2C(=O)Cn2nnc3ccccc32)[nH]1 (stereo not shown) | 1010 to 5000 nM
COc1nc2ccccc2cc1-c1cnc(C2CN(C(=O)C3CCN(C)CC3)CCN2C(=O)Cc2c(C)[nH]c3ccc(F)cc23)[nH]1 (stereo not shown) | 1010 to 5000 nM
COc1ccc2nc(C(F)(F)F)n(CC(=O)N3CCN(Cc4cnc(C)s4)CCC3c3ncc(-c4cc5ccccc5nc4OC)[nH]3)c2c1 (stereo not shown) | 100 to 500 nM
COc1nc2ccccc2cc1-c1cnc(C2CN(C3CCN(C)CC3)CCN2C(=O)Cc2c(C)[nH]c3ccc(F)cc23)[nH]1 (stereo not shown) | 510 to 1000 nM
COc1nc2ccccc2cc1-c1cnc([C@@H]2CN(C3CCC(F)(F)CC3)CCN2C(=O)Cn2c(C(F)(F)F)nc3ccccc32)[nH]1 [(S)-1-(4-(4,4-difluorocyclohexyl)-2-(5-(2-methoxyquinolin-3-yl)-1H-imidazol-2-yl)piperazin-1-yl)-2-(2-(trifluoromethyl)-1H-benzo[d]imidazol-1-yl)ethan-1-one] | < 100 nM
CO[C@](C(=O)N1CCN(C)C[C@@H]1c1ncc(-c2ccc3ccccc3c2)[nH]1)(c1ccccc1)C(F)(F)F | 1010 to 5000 nM
COc1ccc2nc(C(F)(F)F)n(CC(=O)N3CCN(Cc4ccn(C)n4)C[C@H]3c3ncc(-c4cc5ccccc5nc4OC)[nH]3)c2c1 [(S)-2-(6-methoxy-2-(trifluoromethyl)-1H-benzo[d]imidazol-1-yl)-1-(2-(5-(2-methoxyquinolin-3-yl)-1H-imidazol-2-yl)-4-((1-methyl-1H-pyrazol-3-yl)methyl)piperazin-1-yl)ethan-1-one] | < 100 nM
COc1ccc2nc(C(F)(F)F)n(CC(=O)N3CC[C@H](NCc4cncn4C)C[C@H]3c3ncc(-c4cc5ccccc5nc4OC)[nH]3)c2c1 [2-(6-methoxy-2-(trifluoromethyl)-1H-benzo[d]imidazol-1-yl)-1-((2S,4S)-2-(5-(2-methoxyquinolin-3-yl)-1H-imidazol-2-yl)-4-(((1-methyl-1H-imidazol-5-yl)methyl)amino)piperidin-1-yl)ethan-1-one] | < 100 nM
COc1ccc2nc(C(F)(F)F)n(CC(=O)N3CCN(CCc4ccccn4)CCC3c3ncc(-c4cc5ccccc5nc4OC)[nH]3)c2c1 (stereo not shown) [2-(6-methoxy-2-(trifluoromethyl)-1H-benzo[d]imidazol-1-yl)-1-(7-(5-(2-methoxyquinolin-3-yl)-1H-imidazol-2-yl)-4-(2-(pyridin-2-yl)ethyl)-1,4-diazepan-1-yl)-ethan-1-one] | 100 to 500 nM
COc1ccc2nc(C(F)(F)F)n(CC(=O)N3CCN(CC4CCOC4)C[C@H]3c3noc(-c4cc5ccccc5nc4OC)n3)c2c1 (stereo partly drawn) [2-(6-methoxy-2-(trifluoromethyl)-1H-benzo[d]imidazol-1-yl)-1-((2S)-2-(5-(2-methoxyquinolin-3-yl)-1,2,4-oxadiazol-3-yl)-4-((tetrahydrofuran-3-yl)methyl)piperazin-1-yl)ethan-1-one] | 1010 to 5000 nM
